# Results as given in PubChem BioAssay (NCI).
#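 A five-concentration, 48-hour dose response in 96-well plates underlies each endpoint, interpolated linearly between surrounding concentrations. TGI: total growth inhibition.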
# How the values were obtained:
# Experiment in all cases: NCI anticancer screen, dose series, 48 h
# LOX IMVI melanoma = system: LOX IMVI melanoma
# PC-3 prostate = system: PC-3 prostate
# OVCAR-4 ovarian = system: OVCAR-4 ovarian
# A498 renal = system: A498 renal
# MALME-3M melanoma = system: MALME-3M melanoma
# BT-549 breast = system: BT-549 breast
# SNB-75 CNS = system: SNB-75 CNS
# HT29 colon = system: HT29 colon
# SK-MEL-5 melanoma = system: SK-MEL-5 melanoma
# SF-539 CNS = system: SF-539 CNS
# SK-MEL-28 melanoma = system: SK-MEL-28 melanoma
# NCI-H460 lung = system: NCI-H460 lung
# HOP-92 NSCLC = system: HOP-92 NSCLC
# KM12 colon = system: KM12 colon
# COLO 205 colon = system: COLO 205 colon
# UACC-62 melanoma = system: UACC-62 melanoma
# OVCAR-5 ovarian = system: OVCAR-5 ovarian
# CAKI-1 renal = system: CAKI-1 renal
# MDA-N = system: MDA-N
# UO-31 renal = system: UO-31 renal
# HOP-62 NSCLC = system: HOP-62 NSCLC
# SR leukemia = system: SR leukemia
# RXF 393 renal = system: RXF 393 renal
# U251 CNS = system: U251 CNS
# MDA-MB-231 breast = system: MDA-MB-231 breast
# SK-OV-3 ovarian = system: SK-OV-3 ovarian
# HL-60(TB) leukemia = system: HL-60(TB) leukemia
# TK-10 renal = system: TK-10 renal
# SK-MEL-2 melanoma = system: SK-MEL-2 melanoma
# MCF7 breast = system: MCF7 breast
# OVCAR-3 ovarian = system: OVCAR-3 ovarian
# T-47D breast = system: T-47D breast
# SW-620 colon = system: SW-620 colon
# SF-295 CNS = system: SF-295 CNS
# MOLT-4 leukemia = system: MOLT-4 leukemia
# M14 melanoma = system: M14 melanoma
# EKVX NSCLC = system: EKVX NSCLC
# A549 NSCLC = system: A549 NSCLC
# NCI/ADR-RES ovarian = system: NCI/ADR-RES ovarian
# MDA-MB-435 = system: MDA-MB-435
# IGROV1 ovarian = system: IGROV1 ovarian
# UACC-257 melanoma = system: UACC-257 melanoma
# HCT-15 colon = system: HCT-15 colon
# HS 578T breast = system: HS 578T breast
# K-562 leukemia = system: K-562 leukemia
# OVCAR-8 ovarian = system: OVCAR-8 ovarian
# NCI-H522 lung = system: NCI-H522 lung
# ACHN renal = system: ACHN renal
# DU-145 prostate = system: DU-145 prostate
# RPMI-8226 leukemia = system: RPMI-8226 leukemia
# HCT-116 colon = system: HCT-116 colon
# SNB-19 CNS = system: SNB-19 CNS
# SN12C renal = system: SN12C renal
# NCI-H23 lung = system: NCI-H23 lung
# SF-268 CNS = system: SF-268 CNS
# 786-0 renal = system: 786-0 renal
# CCRF-CEM leukemia = system: CCRF-CEM leukemia
# HCC-2998 colon = system: HCC-2998 colon
# NCI-H226 lung = system: NCI-H226 lung
smiles,measurement,setting,value
Cn1c(-c2ccccc2)c2cc3nc4ccccc4nc3cc2c1-c1ccccc1,TGI,LOX IMVI melanoma,65 µM
same,TGI,PC-3 prostate,70.4 µM
same,TGI,OVCAR-4 ovarian,> 100 µM
same,TGI,A498 renal,59.5 µM
same,TGI,MALME-3M melanoma,78.7 µM
same,TGI,BT-549 breast,80.8 µM
same,TGI,SNB-75 CNS,> 100 µM
same,TGI,HT29 colon,> 100 µM
same,TGI,SK-MEL-5 melanoma,9.71 µM
same,TGI,SF-539 CNS,41.2 µM
same,TGI,SK-MEL-28 melanoma,> 100 µM
same,TGI,NCI-H460 lung,25.2 µM
same,TGI,HOP-92 NSCLC,94.2 µM
same,TGI,KM12 colon,72.1 µM
same,TGI,COLO 205 colon,9.09 µM
same,TGI,UACC-62 melanoma,30.2 µM
same,TGI,OVCAR-5 ovarian,> 100 µM
same,TGI,CAKI-1 renal,> 100 µM
same,TGI,MDA-N,38.9 µM
same,TGI,UO-31 renal,> 100 µM
same,TGI,HOP-62 NSCLC,35.9 µM
same,TGI,SR leukemia,24.2 µM
same,TGI,RXF 393 renal,54.4 µM
same,TGI,U251 CNS,> 100 µM
same,TGI,MDA-MB-231 breast,> 100 µM
same,TGI,SK-OV-3 ovarian,64.9 µM
same,TGI,HL-60(TB) leukemia,52.6 µM
same,TGI,TK-10 renal,> 100 µM
same,TGI,SK-MEL-2 melanoma,60.3 µM
same,TGI,MCF7 breast,47.2 µM
same,TGI,OVCAR-3 ovarian,> 100 µM
same,TGI,T-47D breast,> 100 µM
same,TGI,SW-620 colon,92.5 µM
same,TGI,SF-295 CNS,89.8 µM
same,TGI,MOLT-4 leukemia,64.6 µM
same,TGI,M14 melanoma,31.3 µM
same,TGI,EKVX NSCLC,> 100 µM
same,TGI,A549 NSCLC,> 100 µM
same,TGI,NCI/ADR-RES ovarian,> 100 µM
same,TGI,MDA-MB-435,77.4 µM
same,TGI,IGROV1 ovarian,> 100 µM
same,TGI,UACC-257 melanoma,> 100 µM
same,TGI,HCT-15 colon,53.4 µM
same,TGI,HS 578T breast,45.9 µM
same,TGI,K-562 leukemia,82.6 µM
same,TGI,OVCAR-8 ovarian,> 100 µM
same,TGI,NCI-H522 lung,40.3 µM
same,TGI,ACHN renal,83.3 µM
same,TGI,DU-145 prostate,> 100 µM
same,TGI,RPMI-8226 leukemia,30.1 µM
same,TGI,HCT-116 colon,> 100 µM
same,TGI,SNB-19 CNS,> 100 µM
same,TGI,SN12C renal,51.3 µM
same,TGI,NCI-H23 lung,44.1 µM
same,TGI,SF-268 CNS,86.9 µM
CN(C)c1ccc(/C=C(\C#N)c2nc(-c3cc4ccccc4oc3=O)cs2)cc1,TGI,LOX IMVI melanoma,> 50 µM
same,TGI,PC-3 prostate,> 50 µM
same,TGI,OVCAR-4 ovarian,> 50 µM
same,TGI,MALME-3M melanoma,> 50 µM
same,TGI,786-0 renal,21 µM
same,TGI,CCRF-CEM leukemia,> 50 µM
same,TGI,BT-549 breast,8.16 µM
same,TGI,SNB-75 CNS,4.21 µM
same,TGI,HT29 colon,> 50 µM
same,TGI,SK-MEL-5 melanoma,> 50 µM
same,TGI,SF-539 CNS,26.7 µM
same,TGI,SK-MEL-28 melanoma,> 50 µM
same,TGI,NCI-H460 lung,> 50 µM
same,TGI,HOP-92 NSCLC,16.8 µM
same,TGI,KM12 colon,> 50 µM
same,TGI,COLO 205 colon,> 50 µM
same,TGI,UACC-62 melanoma,24.3 µM
same,TGI,OVCAR-5 ovarian,> 50 µM
same,TGI,CAKI-1 renal,> 50 µM
same,TGI,MDA-N,> 50 µM
same,TGI,UO-31 renal,> 50 µM
same,TGI,HOP-62 NSCLC,15.6 µM
same,TGI,SR leukemia,> 50 µM
same,TGI,HCC-2998 colon,> 50 µM
same,TGI,RXF 393 renal,> 50 µM
same,TGI,U251 CNS,44.5 µM
same,TGI,MDA-MB-231 breast,40.9 µM
same,TGI,SK-OV-3 ovarian,> 50 µM
same,TGI,HL-60(TB) leukemia,> 50 µM
same,TGI,TK-10 renal,21.8 µM
same,TGI,NCI-H226 lung,> 50 µM
same,TGI,SK-MEL-2 melanoma,38.6 µM
same,TGI,MCF7 breast,> 50 µM
same,TGI,T-47D breast,> 50 µM
same,TGI,SW-620 colon,> 50 µM
same,TGI,SF-295 CNS,25.1 µM
same,TGI,MOLT-4 leukemia,> 50 µM
same,TGI,M14 melanoma,> 50 µM
same,TGI,EKVX NSCLC,> 50 µM
same,TGI,A549 NSCLC,> 50 µM
same,TGI,NCI/ADR-RES ovarian,> 50 µM
same,TGI,MDA-MB-435,> 50 µM
same,TGI,IGROV1 ovarian,> 50 µM
same,TGI,UACC-257 melanoma,> 50 µM
same,TGI,HCT-15 colon,> 50 µM
same,TGI,HS 578T breast,> 50 µM
same,TGI,K-562 leukemia,> 50 µM
same,TGI,OVCAR-8 ovarian,> 50 µM
same,TGI,NCI-H522 lung,31.6 µM
same,TGI,ACHN renal,> 50 µM
same,TGI,DU-145 prostate,> 50 µM
same,TGI,RPMI-8226 leukemia,> 50 µM
same,TGI,HCT-116 colon,> 50 µM
same,TGI,SNB-19 CNS,> 50 µM
same,TGI,SN12C renal,> 50 µM
same,TGI,SF-268 CNS,> 50 µM
